These molecules were tested against HSD17B13 (Homo sapiens (Human), UniProt Q7Z5P4) (assay: HSD17B13 enzymatic inhibition assay (150 nM or 50 nM HSD17B13)). Details: 50 nM HSD17B13; read-out: Inhibition of 50 nM of HSD17B13 IC50.
Type: biochemical

HSD17B13, sequence (Q7Z5P4 other isoform, or with tags, fused parts or gaps): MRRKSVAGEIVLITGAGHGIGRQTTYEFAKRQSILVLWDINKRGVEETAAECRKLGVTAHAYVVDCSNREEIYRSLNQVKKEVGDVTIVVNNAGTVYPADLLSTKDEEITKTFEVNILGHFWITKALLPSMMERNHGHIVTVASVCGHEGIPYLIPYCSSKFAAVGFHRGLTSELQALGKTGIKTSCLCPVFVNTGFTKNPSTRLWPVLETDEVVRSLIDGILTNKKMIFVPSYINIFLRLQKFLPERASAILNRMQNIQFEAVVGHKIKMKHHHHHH

SMILES | IC50 [nM]
C=Cc1cc(C(=O)NC2c3ccc(C)cc3Sc3cc(C)ccc32)c(=O)[nH]c1C(F)(F)F [Compound 538, N-(3,6-dimethyl-9H-thioxanthen-9-yl)-2-oxo-6-(trifluoromethyl)-5-vinyl-1,2-dihydropyridine-3-carboxamide] | 40
CCCc1ccc2c(c1)C(NC(=O)c1ccc(C(F)(F)F)[nH]c1=O)c1ccccc1S2(=O)=O (centres unmarked) [Compound 469, N-(10,10-dioxido-2-propyl-9H-thioxanthen-9-yl)-2-oxo-6-(trifluoromethyl)-1,2-dihydropyridine-3-carboxamide] | 310
COc1ccc(C(NC(=O)c2c(C)cc(C(F)(F)F)[nH]c2=O)c2ccccc2)cc1 (centres unmarked) [Compound 78, N-((4-methoxyphenyl)(phenyl)methyl)-4-methyl-2-oxo-6-(trifluoromethyl)-1,2-dihydropyridine-3-carboxamide] | 1340
Cc1ccc2c(c1)Oc1cc(C)ccc1C2NC(=O)c1cc(-c2cc[nH]c(=O)c2)c(C(F)(F)F)[nH]c1=O [Compound 494, N-(3,6-dimethyl-9H-xanthen-9-yl)-2′,6-dioxo-2-(trifluoromethyl)-1,1′,2′,6-tetrahydro-[3,4′-bipyridine]-5-carboxamide] | 20
O=C(NC1c2ccccc2CCc2ccccc21)c1ccc(C(F)(F)F)[nH]c1=O [Compound 40, N-(10,11-dihydro-5H-dibenzo[a,d][7]annulen-5-yl)-2-oxo-6-(trifluoromethyl)-1,2-dihydropyridine-3-carboxamide] | 1650
CCc1ccc2c(c1)C(NC(=O)c1ccc(C(F)(F)F)[nH]c1=O)c1ccccc1S2(=O)=O (centres unmarked) [Compound 468, N-(2-ethyl-10,10-dioxido-9H-thioxanthen-9-yl)-2-oxo-6-(trifluoromethyl)-1,2-dihydropyridine-3-carboxamide] | 190
O=C(NC(c1ccccc1)c1ccc2c(c1)OCCC2)c1ccc(C(F)(F)F)[nH]c1=O (centres unmarked) [Compound 89, N-(chroman-7-yl(phenyl)methyl)-2-oxo-6-(trifluoromethyl)-1,2-dihydropyridine-3-carboxamide] | 1090
O=C(NC1c2cc(OC(F)(F)F)ccc2-c2ccc(OC(F)(F)F)cc21)c1ccc(C(F)(F)F)[nH]c1=O [Compound 413, N-(2,7-bis(trifluoromethoxy)-9H-fluoren-9-yl)-2-oxo-6-(trifluoromethyl)-1,2-dihydropyridine-3-carboxamide] | 880
CSc1ccc(C(NC(=O)c2ccc(C(F)(F)F)[nH]c2=O)c2ccc(C)cc2)cc1 (centres unmarked) [Compound 448, N-((4-(methylthio)phenyl)(p-tolyl)methyl)-2-oxo-6-(trifluoromethyl)-1,2-dihydropyridine-3-carboxamide] | 140
O=C(NC1c2ccccc2Oc2cc(C3CNC3)ccc21)c1ccc(C(F)(F)F)[nH]c1=O (centres unmarked) [Compound 483, N-(3-(azetidin-3-yl)-9H-xanthen-9-yl)-2-oxo-6-(trifluoromethyl)-1,2-dihydropyridine-3-carboxamide] | 1110
CNCc1ccc(C(NC(=O)c2ccc(C(F)(F)F)[nH]c2=O)c2ccccc2)cc1 (centres unmarked) [Compound 102, N-((4-((methylamino)methyl)phenyl) (phenyl)methyl)-2-oxo-6-(trifluoromethyl)-1,2-dihydropyridine-3-carboxamide] | > 10000
Cc1ccc2c(c1)Sc1cc(C)ccc1C2NC(=O)c1cc(-c2ncccn2)c(C(F)(F)F)[nH]c1=O [Compound 507, N-(3,6-dimethyl-9H-thioxanthen-9-yl)-2-oxo-5-(pyrimidin-2-yl)-6-(trifluoromethyl)-1,2-dihydropyridine-3-carboxamide] | 40
O=C(NC1c2ccccc2Oc2ccc(CC(F)(F)F)cc21)c1ccc(C(F)(F)F)[nH]c1=O (centres unmarked) [Compound 479, 2-oxo-N-(2-(2,2,2-trifluoroethyl)-9H-xanthen-9-yl)-6-(trifluoromethyl)-1,2-dihydropyridine-3-carboxamide] | 260
Cc1ccc2c(c1)O[C@@H]1CCCC[C@H]1[C@H]2NC(=O)c1ccc(C(F)(F)F)[nH]c1=O [Compound 541, N-((4aR,9R,9aS)-6-methyl-2,3,4,4a,9,9a-hexahydro-1H-xanthen-9-yl)-2-oxo-6-(trifluoromethyl)-1,2-dihydropyridine-3-carboxamide] | 60
O=C(NC(c1ccccc1)c1ccc(C2=CCOCC2)cc1)c1ccc(C(F)(F)F)[nH]c1=O (centres unmarked) [Compound 33, N-((4-(3,6-dihydro-2H-pyran-4-yl)phenyl)(phenyl)methyl)-2-oxo-6-(trifluoromethyl)-1,2-dihydropyridine-3-carboxamide] | 820
O=C(NC(c1ccccc1)c1ccc2c(c1)CCCN2)c1ccc(C(F)(F)F)[nH]c1=O (centres unmarked) [Compound 107, 2-oxo-N-(phenyl(1,2,3,4-tetrahydroquinolin-6-yl)methyl)-6-(trifluoromethyl)-1,2-dihydropyridine-3-carboxamide] | 960
CCc1cc(C(F)(F)F)[nH]c(=O)c1C(=O)NC1c2ccc(Cl)cc2Oc2cc(Cl)ccc21 [Compound 206, N-(3,6-dichloro-9H-xanthen-9-yl)-4-ethyl-2-oxo-6-(trifluoromethyl)-1,2-dihydropyridine-3-carboxamide] | 290
Cc1ccc(C(NC(=O)c2ccc(C(F)(F)F)[nH]c2=O)C2CCC(C)CC2)cc1 (centres unmarked) [Compound 400, N-((4-methylcyclohexyl)(p-tolyl)methyl)-2-oxo-6-(trifluoromethyl)-1,2-dihydropyridine-3-carboxamide] | 230

SMILES | IC50 [nM]
O=C(NC(c1ccccc1)c1ccc(-c2ccncc2)cc1)c1ccc(C(F)(F)F)[nH]c1=O (centres unmarked) [Compound 85, 2-oxo-N-(phenyl(4-(pyridin-4-yl)phenyl)methyl)-6-(trifluoromethyl)-1,2-dihydropyridine-3-carboxamide] | 840
CCCC1Cc2cc(OC)ccc2C(NC(=O)c2ccc(C(F)(F)F)[nH]c2=O)C1 (centres unmarked) [Compound 392, N-(6-methoxy-3-propyl-1,2,3,4-tetrahydronaphthalen-1-yl)-2-oxo-6-(trifluoromethyl)-1,2-dihydropyridine-3-carboxamide] | 80
CCc1cc(C(=O)NC2c3ccc(C)cc3Oc3cccc(C)c32)c(=O)[nH]c1C(F)(F)F (centres unmarked) [Compound 167, N-(1,6-dimethyl-9H-xanthen-9-yl)-5-ethyl-2-oxo-6-(trifluoromethyl)-1,2-dihydropyridine-3-carboxamide] | 820
Cc1ccc2c(c1)Oc1cccc(C)c1C2NC(=O)c1cc(C2=CCOCC2)c(C(F)(F)F)[nH]c1=O (centres unmarked) [Compound 188, 5-(3,6-dihydro-2H-pyran-4-yl)-N-(1,6-dimethyl-9H-xanthen-9-yl)-2-oxo-6-(trifluoromethyl)-1,2-dihydropyridine-3-carboxamide] | 280
Cc1ccc2c(c1)Sc1cc(C)ccc1C2NC(=O)c1cc(CO)c(C(F)(F)F)[nH]c1=O [Compound 463, N-(3,6-dimethyl-9H-thioxanthen-9-yl)-5-(hydroxymethyl)-2-oxo-6-(trifluoromethyl)-1,2-dihydropyridine-3-carboxamide] | 50
Cc1ccc2[nH]c(C)c(NC(=O)c3ccc(C(F)(F)F)[nH]c3=O)c2c1 [Compound 378, N-(2,5-dimethyl-1H-indol-3-yl)-2-oxo-6-(trifluoromethyl)-1,2-dihydropyridine-3-carboxamide] | 760
O=C(NC1c2ccc(Cl)cc2Oc2cccc(Cl)c21)c1cnc(SCc2ccccc2C(F)(F)F)[nH]c1=O (centres unmarked) [Compound 529, N-(1,6-dichloro-9H-xanthen-9-yl)-6-oxo-2-((2-(trifluoromethyl)benzyl)thio)-1,6-dihydropyrimidine-5-carboxamide] | > 10000
C=Cc1ccc2c(c1)C(NC(=O)c1ccc(C(F)(F)F)[nH]c1=O)c1ccccc1O2 (centres unmarked) [Compound 155, 2-oxo-6-(trifluoromethyl)-N-(2-vinyl-9H-xanthen-9-yl)-1,2-dihydropyridine-3-carboxamide] | 460
Cc1ccc2c(c1)CCC2NC(=O)c1ccc(C(F)(F)F)[nH]c1=O (centres unmarked) [Compound 133, N-(5-methyl-2,3-dihydro-1H-inden-1-yl)-2-oxo-6-(trifluoromethyl)-1,2-dihydropyridine-3-carboxamide] | 1450
CCCc1cc(C(=O)NC2c3ccc(C)cc3Oc3cccc(C)c32)c(=O)[nH]c1C(F)(F)F (centres unmarked) [Compound 181, N-(1,6-dimethyl-9H-xanthen-9-yl)-2-oxo-5-propyl-6-(trifluoromethyl)-1,2-dihydropyridine-3-carboxamide] | 390
C=CCc1cc(NC(=O)c2ccc(C(F)(F)F)[nH]c2=O)cc(CC=C)n1 [Compound 267, N-(2,6-diallylpyridin-4-yl)-2-oxo-6-(trifluoromethyl)-1,2-dihydropyridine-3-carboxamide] | 9440
O=C(NC1c2ccccc2Oc2ccc(F)cc21)c1ccc(C(F)(F)F)[nH]c1=O (centres unmarked) [Compound 150, N-(2-fluoro-9H-xanthen-9-yl)-2-oxo-6-(trifluoromethyl)-1,2-dihydropyridine-3-carboxamide] | 400
COc1ccc(C(NC(=O)c2ccc(C(F)(F)F)[nH]c2=O)c2ccc(C)cc2)cc1 (centres unmarked) [Compound 447, N-((4-methoxyphenyl)(p-tolyl)methyl)-2-oxo-6-(trifluoromethyl)-1,2-dihydropyridine-3-carboxamide] | 160
CCc1cccc(NC(=O)c2ccc(C(F)(F)F)[nH]c2=O)c1 [Compound 225, N-(3-ethylphenyl)-2-oxo-6-(trifluoromethyl)-1,2-dihydropyridine-3-carboxamide] | 4650
CCc1cccc(C(NC(=O)c2ccc(C(F)(F)F)[nH]c2=O)c2ccc(C)cc2)c1 (centres unmarked) [Compound 444, N-((3-ethylphenyl)(p-tolyl)methyl)-2-oxo-6-(trifluoromethyl)-1,2-dihydropyridine-3-carboxamide] | 170
Cc1ccc2c(c1)Oc1cccc(C)c1C2NC(=O)c1cc(CO)c(C(F)(F)F)[nH]c1=O (centres unmarked) [Compound 185, N-(1,6-dimethyl-9H-xanthen-9-yl)-5-(hydroxymethyl)-2-oxo-6-(trifluoromethyl)-1,2-dihydropyridine-3-carboxamide] | 730
O=C(NC1CCc2cc(O)ccc21)c1ccc(C(F)(F)F)[nH]c1=O (centres unmarked) [Compound 135, N-(5-hydroxy-2,3-dihydro-1H-inden-1-yl)-2-oxo-6-(trifluoromethyl)-1,2-dihydropyridine-3-carboxamide] | 1910

From US11957687B2 (REGENERON PHARMACEUTICALS, INC., priority 2019, dated 2024)
